Data set [1] in a line: LPV in-vitro release profile experiment. The class given is physicochemical. The settings on record: 0.1% Tween 80 release medium. The method, then: LPV in-vitro release kinetic experiments were carried out using the apparatus (VanKel VK7000 with a VK […] pump) comprised of six vessels containing 300 ml of 0.1% Tween 80 at 37° C. with USP paddles rotating at a speed of 50 rpm. The three formulations (F[I]-F[III]) were added to the different vessels at a LPV quantity equivalent to maintain sink conditions (10% of the pre-determined solubility). […] The samples were filtered using 0.45 μm PVDF filter and 500 μl from the filtrate was diluted in 500 μl methanol. These samples were comprised of free and encapsulated LPV, since LPV NCs diameter size is about 200 nm and the NCs can diffuse via 0.45 μm membrane pores. The remaining filtrate was then transferred to diafiltration membrane vivaspin 6 (MWCO 300,000 purchased from Sartorius Stedim Biotech) and centrifuged for 15 min at 4000 rpm. […] All samples were analyzed using HPLC. […] The graphs display both the total amount of LPV released from the MCPs, as free dissolved molecules and the LPV molecules still entrapped in the NCs, as detected following filtration of the dissolution samples through 0.45 μm PVDF filters (dimond-shaped points), as well as the free dissolved LPV molecules fraction only, as detected following a second filtration using 300,000 MW cut off vivaspin membranes which retained the NCs (square points). […]

A short description of data set [2]: Pharmacokinetic studies in rats (LPV plasma levels by LC-MS/MS). The class given is in vivo. The settings on record: male, Sprague-Dawley, rat, oral, 10 mg/kg, read-out: absolute bioavailability compared to i.v. LPV solution.
Test in data set [3]: as above
The settings on record: male, Sprague-Dawley, rat. The class given is in vivo. As for the experimental part: Sprague-Dawley male rats weighing 270-300 g were used and were separated randomly into seven groups with 4-8 animals per group to evaluate the biofate of LPV in different formulations. The animals were housed in SPF conditions, fasted overnight (12-14 h prior to the experiment) with free access to water. The animals were given a dose of 10 mg/kg LPV with or without RTV, always at the same ratio as the Kaletra® administered orally, using gavage. The groups were orally administered according to the following experimental conditions: 1 ml of Kaletra® oral solution (LPV 80 mg/RTV 20 mg/ml) prepared by diluting the purchased commercial solution with 1:1:1 ethanol:propylene glycol:DDW to a concentration of LPV 3 mg/RTV 0.75 mg/ml; and microparticulate formulations, F[I]-F[III] prepared by dispersing the NCs embedded in MCPs in DDW to the final concentration of 40 mg/ml. Blood samples (400-500 μl) were withdrawn from the tail vein at 0, 0.5, 1, 2, 4, 8, 12 and 24 h. Saline solution was given to the animals after 30 min and then again after 3 h. The blood samples were collected in heparin containing tubes. The samples were immediately centrifuged at 10,000 rpm for 5 min, after which 200-300 μl of plasma samples were transferred to new tubes and stored at −80° C. until further analysis by LC-MS/MS as described below.
The blood samples were treated by protein precipitation in methanol, following 15 min centrifuge at 10,000 rpm. 25 ng of quinoxaline (QX) dissolved in methanol were added to each sample, as an internal standard. The supernatant layer was collected and the samples were injected into an LC-MS/MS device under the following conditions: using a Phenomenex Kenetex column (RP-C18, 50×2.1 mm, 2.6 μm, 100 A) in gradient mode; the mobile phase consisted of A=methanol/formic acid 99.9/0.1 and B=water/formic acid 99.9/0.1; the A:B ratio was 58:42 at t=0 min, during the first 1.5 min the ratio changed gradually to A:B 80:20 and remained steady until 2.1 min. […] The flow rate was maintained at 0.35 ml/min, and the column temperature was maintained at 35° C. LC-MS/MS analysis was performed with a thermo scientific Accela HPLC system coupled with a TSQ Quantum Access MAX detector in positive ionization mode. Detection and quantification were carried out by multiple-reaction monitoring with transitions from m/z 629.3 to 156 for LPV and from m/z 313.1 to 246 for QX. The tested samples were quantified against a calibration curve in the range of 0-100 ng/ml.
The change in LPV plasma concentrations following intravenous (i.v.) administration of LPV alone and combined with RTV in an aqueous solution and the pharmacokinetic (PK) profile of LPV following oral administration of various formulations is depicted in FIG. 10. […] The absolute bioavailability (F) of LPV at all dosage forms was calculated relative to the AUC (area under the curve) yielded by i.v. administration of LPV and RTV at the ratio of 4:1 (F=1.0) since the same combination of LPV and RTV, when administered orally, is considered the standard of PI care for HIV-linfected patients.

The nature of data set [4]: LPV solubility test in 0.1% Tween 80. It counts as physicochemical. Conditions: 0.1% Tween 80 solution, aqueous with cosolvent or surfactant or cyclodextrin, thermodynamic from solid; 0.1% Tween 80, pH 7.4, 37° C., 3 h incubation. The method, then:
A solubility test was performed prior to the in-vitro release profile experiment to ensure that sink conditions would prevail by adding 10 mg LPV to 10 ml of 0.1% Tween 80 pre-warmed to 37° C. in a beaker. The pH was adjusted to 7.4 and the Tween solution was kept at 37° C. and rotated at 150 rpm for 3 h. Then, 5 ml aliquots were taken and filtered using a 0.45 μm PVDF filter and diluted with methanol to a final dilution factor of 10.

Where [5] appears, read: plasma, rats, oral, 10 mg/kg LPV.

In brackets after ≈: the same amount, converted by molar mass. Where two headings read alike, the source gives them in different places.

Here are results for one compound from US20160235749A1, “MICRO-PARTICULATED NANOCAPSULES CONTAINING LOPINAVIR WITH ENHANCED ORAL BIOAVAILABILITY AND EFFICACY” (priority 2015, published 2016).

Take `Cc1cccc(C)c1OCC(=O)N[C@@H](Cc1ccccc1)[C@@H](O)C[C@H](Cc1ccccc1)NC(=O)[C@H](C(C)C)N1CCCNC1=O` [LPV, (2S)—N-[(2S,4S,5S)-5-[2-(2,6-dimethylphenoxy)acetamido]-4-hydroxy-1,6-diphenylhexan-2-yl]-3-methyl-2-(2-oxo-1,3-diazinan-1-yl)butanamide]: in data set [1], the “LPV solubility at pH 1.2” value was “low solubility below HPLC detection limit”. Moreover, the bioavailability (as a rule, dose-corrected exposure relative to a reference, in per cent) was determined as 24% in data set [2] and 5% in data set [3] (plasma, oral, 10 mg/kg, rats, oral, read-out: absolute bioavailability compared to LPV:RTV 4:1 i.v.). Also, in data set [3] (in vivo, po), the “decrease in Cmax compared to Kaletra® oral solution” value was 3 fold. Moreover, the exposure (AUC) (usually the area under the concentration-time curve, a measure of exposure) in data set [3] (plasma, iv, rats, 10 mg/kg LPV) came out at 8000 ± 1220 ng·h/mL; in data set [3] (setting [5]) it was 1910 ± 324 ng·h/mL. For the same compound, in data set [3] (plasma, iv, rats, 10 mg/kg LPV), the clearance (commonly a measure of how efficiently the substance is removed, as volume per time) was 21.1 mL/min/kg. In addition, the half-life – broadly, the time needed for the level to fall by half in the phase considered – in data set [3] (plasma, iv, rats, 10 mg/kg LPV) was 1.2 ± 0.2 h; in data set [3] (setting [5]), 4.8 ± 0.9 h. The Cmax in data set [3] (plasma, iv, rats, i.v., 10 mg/kg LPV, read-out: Cmax (extrapolated plasma concentration at T0)) was 2780 ± 203 ng/mL; in data set [3] (plasma, rats, oral, 10 mg/kg LPV, read-out: Cmax), 780 ± 246 ng/mL. The solubility (as a rule, the concentration that dissolves in the medium under given conditions) at 3 h in data set [4] came out at 72.7 µg/mL (≈ 116 µM).
